ChEMBL document CHEMBL5291721, “A preclinical secondary pharmacology resource illuminates target-adverse drug reaction associations of marketed drugs” (Nat Commun, 2023)

What was measured:
[1] = molecular target: T1, Alpha-1A adrenergic receptor (Homo sapiens, UniProt P35348); type: functional, cell-based
T1 sequence (P35348 whole entry): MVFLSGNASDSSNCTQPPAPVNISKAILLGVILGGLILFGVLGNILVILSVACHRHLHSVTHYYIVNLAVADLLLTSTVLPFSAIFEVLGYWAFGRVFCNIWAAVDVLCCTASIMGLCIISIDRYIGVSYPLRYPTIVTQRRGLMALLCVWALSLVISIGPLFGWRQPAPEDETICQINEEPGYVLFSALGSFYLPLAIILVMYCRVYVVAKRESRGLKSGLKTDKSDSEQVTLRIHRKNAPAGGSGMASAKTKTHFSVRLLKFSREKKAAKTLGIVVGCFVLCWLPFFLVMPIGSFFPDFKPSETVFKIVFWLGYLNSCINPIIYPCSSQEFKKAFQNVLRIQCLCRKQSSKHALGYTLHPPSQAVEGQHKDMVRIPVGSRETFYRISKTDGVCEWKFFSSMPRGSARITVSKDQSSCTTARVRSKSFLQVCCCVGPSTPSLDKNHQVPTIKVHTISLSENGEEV

[2] = molecular target: T2, Oxysterols receptor LXR-beta (Homo sapiens, UniProt P55055); type: functional
T2 sequence (P55055 whole entry): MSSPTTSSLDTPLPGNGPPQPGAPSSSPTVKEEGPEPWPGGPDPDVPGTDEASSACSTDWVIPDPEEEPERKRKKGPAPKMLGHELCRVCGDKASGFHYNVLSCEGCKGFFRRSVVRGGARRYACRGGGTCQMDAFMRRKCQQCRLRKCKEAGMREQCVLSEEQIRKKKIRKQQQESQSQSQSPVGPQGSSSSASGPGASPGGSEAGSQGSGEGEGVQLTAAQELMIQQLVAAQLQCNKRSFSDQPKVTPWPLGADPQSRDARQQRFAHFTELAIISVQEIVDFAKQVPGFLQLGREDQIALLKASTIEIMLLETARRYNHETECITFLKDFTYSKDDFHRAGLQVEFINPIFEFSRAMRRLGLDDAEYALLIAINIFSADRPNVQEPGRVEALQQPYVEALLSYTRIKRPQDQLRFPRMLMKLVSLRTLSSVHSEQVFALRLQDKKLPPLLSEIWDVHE

[3] = molecular target: T3, Nuclear receptor subfamily 1 group I member 3 (Homo sapiens, UniProt Q14994); type: functional
T3 sequence (Q14994 whole entry): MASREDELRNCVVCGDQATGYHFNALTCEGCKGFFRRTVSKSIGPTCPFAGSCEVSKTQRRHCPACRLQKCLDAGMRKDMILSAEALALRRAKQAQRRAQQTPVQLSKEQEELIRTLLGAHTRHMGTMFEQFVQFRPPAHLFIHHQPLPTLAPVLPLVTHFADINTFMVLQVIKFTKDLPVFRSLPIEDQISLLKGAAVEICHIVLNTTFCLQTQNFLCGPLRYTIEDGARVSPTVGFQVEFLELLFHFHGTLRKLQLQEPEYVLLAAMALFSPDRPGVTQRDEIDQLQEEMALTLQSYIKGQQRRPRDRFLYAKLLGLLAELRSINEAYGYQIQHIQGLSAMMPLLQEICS

[4] = molecular target: T4, Oxysterols receptor LXR-alpha (Homo sapiens, UniProt Q13133); type: functional
T4 sequence (Q13133 whole entry): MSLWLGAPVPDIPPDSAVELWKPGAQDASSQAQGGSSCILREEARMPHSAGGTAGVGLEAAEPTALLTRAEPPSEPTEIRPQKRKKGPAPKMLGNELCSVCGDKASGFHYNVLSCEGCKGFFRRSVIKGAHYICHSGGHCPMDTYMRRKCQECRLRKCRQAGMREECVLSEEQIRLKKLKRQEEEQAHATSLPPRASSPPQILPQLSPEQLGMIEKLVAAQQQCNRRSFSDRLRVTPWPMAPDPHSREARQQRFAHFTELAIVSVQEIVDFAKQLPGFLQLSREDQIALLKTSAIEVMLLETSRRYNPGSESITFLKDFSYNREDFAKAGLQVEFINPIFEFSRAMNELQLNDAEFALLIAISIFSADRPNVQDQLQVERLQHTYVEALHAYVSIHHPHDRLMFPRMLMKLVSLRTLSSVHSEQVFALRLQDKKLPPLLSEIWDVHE

[5] = molecular target: T5, Peroxisome proliferator-activated receptor alpha (Homo sapiens, UniProt Q07869); type: functional
T5 sequence (Q07869 whole entry): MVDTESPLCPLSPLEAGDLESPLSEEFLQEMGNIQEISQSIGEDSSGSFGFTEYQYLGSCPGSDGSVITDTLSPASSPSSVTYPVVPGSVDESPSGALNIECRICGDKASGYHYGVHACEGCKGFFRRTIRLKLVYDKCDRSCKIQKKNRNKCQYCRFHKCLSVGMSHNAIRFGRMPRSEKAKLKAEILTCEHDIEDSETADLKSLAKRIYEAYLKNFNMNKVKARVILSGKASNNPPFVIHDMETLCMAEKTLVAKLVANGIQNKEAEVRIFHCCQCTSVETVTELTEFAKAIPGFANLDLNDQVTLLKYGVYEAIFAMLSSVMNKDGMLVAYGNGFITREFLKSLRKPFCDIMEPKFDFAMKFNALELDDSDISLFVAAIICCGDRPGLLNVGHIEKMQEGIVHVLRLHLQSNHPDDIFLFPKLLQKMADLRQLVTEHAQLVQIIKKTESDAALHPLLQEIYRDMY

[6] = molecular target: T6, Prostaglandin G/H synthase 1 (Rattus norvegicus, UniProt Q63921); type: functional
T6 sequence (Q63921 whole entry): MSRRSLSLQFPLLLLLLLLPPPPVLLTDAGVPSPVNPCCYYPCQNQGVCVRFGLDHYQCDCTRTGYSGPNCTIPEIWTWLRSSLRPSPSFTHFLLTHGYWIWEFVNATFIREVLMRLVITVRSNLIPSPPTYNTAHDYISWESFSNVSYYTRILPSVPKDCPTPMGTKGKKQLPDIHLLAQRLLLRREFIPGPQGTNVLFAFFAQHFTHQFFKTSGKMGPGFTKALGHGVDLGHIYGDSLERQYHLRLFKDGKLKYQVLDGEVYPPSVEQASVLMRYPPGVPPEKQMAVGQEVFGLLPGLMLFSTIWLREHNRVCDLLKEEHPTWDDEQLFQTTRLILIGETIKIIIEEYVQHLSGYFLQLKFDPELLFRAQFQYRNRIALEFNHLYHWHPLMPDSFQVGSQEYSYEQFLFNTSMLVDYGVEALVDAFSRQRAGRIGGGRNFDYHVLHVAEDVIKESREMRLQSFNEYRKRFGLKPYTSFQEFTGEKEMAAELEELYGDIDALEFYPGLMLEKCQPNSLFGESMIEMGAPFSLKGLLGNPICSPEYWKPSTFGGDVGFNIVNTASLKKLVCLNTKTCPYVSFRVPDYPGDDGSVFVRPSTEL
Further: assay procedure not described here.

N=C(N)NC(=O)Cc1c(Cl)cccc1Cl [GUANFACINE]
AC50 [1]: 0.0093 µM

CC(=O)N1CCN(c2ccc(OCC3COC(Cn4ccnc4)(c4ccc(Cl)cc4Cl)O3)cc2)CC1 (stereo unspecified) [KETOCONAZOLE]
AC50 [2]: > 30 µM
AC50 [3]: 5 µM
AC50 [4]: > 30 µM
AC50 [5]: > 30 µM

COc1ccc(C(Cl)=C(c2ccc(OC)cc2)c2ccc(OC)cc2)cc1 [CHLOROTRIANISENE]
AC50 [6]: 0.0782 µM
